Test results taken from patent publication US7285393B2, “Assay for modulation of γ secretase” (Merck Sharp & Dohme Limited, priority 2002, dated 2007).

How the values were obtained:
γ(40)-secretase activity = biological target: T1, γ(40)-secretase activity (Homo sapiens, UniProt P49768); assay: Exogenous substrate γ-secretase assay, Aβ(40) generation from C100Flag; type: biochemical; details: SH-SY5Y membranes, recombinant C100Flag substrate, 0.5% CHAPSO
T1 construct: utilizing SH-SY5Y membranes as source of γ-secretase enzyme; endogenous in cells; host or cells: human SH-SY5Y neuroblastoma cell membranes (0.5% CHAPSO)
Method: (§1) Exogenous substrate γ-secretase assays—For determination of the potencies of Merck A and B, membranes from SH-SY5Y membranes stored in PBS, 5% glycerol were collected by centrifugation for 30 min at 180,000 g. For in vitro generation of Aβ peptides, 80 μg of membranes were incubated with 7.5 μg of recombinant C100Flag (Li et al., 2000a) in 20 mM HEPES, pH 7.3, 2 mM EDTA, 0.1% bovine serum albumin, 0.5% CHAPSO in 100 μl final volume similar to described methods (Li et al., 2000a) in the presence of increasing compound concentrations. Aβ peptides were quantified by an electrochemiluminescence assay in a 96-well plate format [Origen M-Series™ analyzer, Igen] as described (Beher et al., 2001) using 35 μl of the reaction for Aβ(40) and 50 μl for Aβ(42) detection. Non-specific background was defined by the signal obtained when the assay was performed in the presence of 10 μM of Merck A. For determination of γ-secretase activity in the sucrose gradient fractions, 20 μl of each fraction were incubated with 10 μg of recombinant C100Flag and processed further as above.
(§2) FIG. 1. γ-Secretase inhibitors synthesized for this study and their potencies for inhibition of γ(40)- and γ(42)-secretase activities. […] The reduction of Aβ generation was measured relative to Me2SO-treated controls and error bars indicate the standard error the mean from triplicate experiments.

γ(42)-secretase activity = biological target: T2, γ(42)-secretase activity (Homo sapiens, UniProt P49768); assay: Exogenous substrate γ-secretase assay, Aβ(42) generation from C100Flag; type: biochemical; details: SH-SY5Y membranes, recombinant C100Flag substrate, 0.5% CHAPSO
T2 construct: utilizing SH-SY5Y membranes as source of γ-secretase enzyme; endogenous in cells; host or cells: human SH-SY5Y neuroblastoma cell membranes (0.5% CHAPSO)
Method: as §1, §2

[1] = test system: Aβ42, Aβ38 and Aβ40 production; details: cited from earlier work
[2] = biological target: T3, γ-secretase complex (PS1 heterodimer and nicastrin) (Homo sapiens, UniProt P49768); assay: Inhibitor affinity precipitation of CHAPSO-solubilized γ-secretase with biotinylated Merck C, Western blot; type: binding; details: test compound 200 μM, Merck C 0.1 μM, 2.5 mg beads
T3 construct: mainly occurs as a heterodimer of its N- and C-terminal fragment; endogenous in cells; host or cells: human SH-SY5Y neuroblastoma cell membranes, solubilised in 1% CHAPSO and diluted to 0.5%
Method: Western blot analyses—Equal amounts of protein were separated by SDS-polyacrylamide gel electrophoresis and transferred to nitrocellulose membranes. Probing of the membranes was carried out with various antibodies, as indicated in the figures, using the enhanced-chemiluminescence system (ECL, Amersham). Quantitation of bands using a computerized image analysis system (MCID, Imaging Research Inc.) was performed as described previously (Beher et al., 1999).
CHAPSO-solubilization of active γ-secretase and inhibitor affinity precipitations—SH-SY5Y membranes stored in PBS, 5% glycerol were collected by centrifugation for 30 min at 180,000 g. Membrane proteins were solubilized in 1% (w/v) CHAPSO, 50 mM MES-NaOH, pH 6.0, 0.15 M NaCl, 5 mM MgCl2, 1×EDTA-free protease inhibitor mixture (Roche Molecular Biochemicals). Insoluble debris was removed by centrifugation at 180,000 g for 30 min and the resulting supernatant (solubilized γ-secretase) adjusted with the same buffer without CHAPSO to give a final detergent concentration of 0.5% CHAPSO (w/v). Endogenous biotinylated proteins were removed by adding streptavidin-coupled magnetic beads and centrifugation for 2 min at 20,000 g after an incubation for 30 min at 4° C. […]

SMILES	IC50 for inhibition of γ(40)-secretase activity (in vitro generation of Aβ(40)) (γ(40)-secretase activity)	IC50 for inhibition of γ(42)-secretase activity (in vitro generation of Aβ(42)) (γ(42)-secretase activity)	Effect on capture efficiency for PS1 heterodimer and mature nicastrin by Merck C [2]	Effect on production of Aβ38 [1]	Effect on production of Aβ40 [1]	Effect on production of Aβ42 [1]
CC(C)CC(NC(=O)C(Cc1ccccc1)CC(O)C(Cc1ccccc1)NC(=O)OC(C)(C)C)C(=O)NC(Cc1ccccc1)C(N)=O (stereo not shown) [Merck A]	low nanomolar range	low nanomolar range				
CC(C)Cc1ccc(C(C)C(=O)O)cc1 (stereo not shown) [ibuprofen]				increasing	constant	inhibit
COc1ccc2c(c1)c(CC(=O)O)c(C)n2C(=O)c1ccc(Cl)cc1 [indomethacin]				increasing	constant	inhibit

More lines, main results first:

IC50 for inhibition of γ(40)-secretase activity (in vitro generation of Aβ(40)) (γ(40)-secretase activity)	IC50 for inhibition of γ(42)-secretase activity (in vitro generation of Aβ(42)) (γ(42)-secretase activity)	Effect on capture efficiency for PS1 heterodimer and mature nicastrin by Merck C [2]	SMILES	Effect on production of Aβ38 [1]	Effect on production of Aβ40 [1]	Effect on production of Aβ42 [1]
low nanomolar range	low nanomolar range		CC(C)CC(NC(=O)C(Cc1ccccc1)CC(O)C(Cc1ccccc1)NC(=O)OC(C)(C)C)C(=O)NC(Cc1ccccc1)C(=O)NCCCCCNC(=O)CCCCCNC(=O)CCCCCNC(=O)CCCCCN (stereo not shown) [Merck B]			
		comparable to the DMSO (Me2O) control	CC1=C(CC(=O)O)c2cc(F)ccc2/C1=C\c1ccc(S(C)(=O)=O)cc1 [sulindac sulfone]			does not lower
		enhanced	CSc1ccc(/C=C2/C(C)=C(CC(=O)O)c3cc(F)ccc32)cc1 [sulindac sulphide]	increasing	constant	inhibit
